Test results published in patent publication US6737383B1, “Herbicidal oxadiazolidines” (priority 1999, dated 2004).

What was measured:
surinam grass = assay: Test B pre/postemergence surinam grass; type: in vivo, Brachiaria decumbens
Summary of the method: (§1)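 Response is a visual 0-to-10 score relative to untreated plants, where 0 means no effect and 10 means complete control, taken twelve to sixteen days after application. Treatments went onto soil at planting and onto foliage of 1- to 4-leaf plants, using a surfactant-containing non-phytotoxic solvent.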

soybean = assay: Test B pre/postemergence soybean; type: in vivo, Glycine max; settings: for Plant response rating, Soybean: scale of 0 to 10 where 0 is no effect and 10 is complete control
Summary of the method: as §1

wild oat = assay: Test B pre/postemergence wild oat; type: in vivo, Avena fatua; settings: for Plant response rating, Wild oats: scale of 0 to 10 where 0 is no effect and 10 is complete control
Summary of the method: as §1

rice = assay: Test B flood test rice; type: in vivo, Oryza sativa
Summary of the method: (§2)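 Flood test on plants grown to the 2-leaf stage; treated plants kept in greenhouse twelve to sixteen days, then visually rated against controls on a 0 (no effect) to 10 (complete control) scale.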

giant foxtail = assay: Test B pre/postemergence giant foxtail; type: in vivo, Setaria faberii
Summary of the method: as §1

sugar beet = assay: Test B pre/postemergence sugar beet; type: in vivo, Beta vulgaris; settings: for Plant response rating, Sugarbeets: scale of 0 to 10 where 0 is no effect and 10 is complete control
Summary of the method: as §1

blackgrass = assay: Test B pre/postemergence blackgrass; type: in vivo, Alopecurus myosuroides
Summary of the method: as §1

corn = assay: Test B pre/postemergence corn; type: in vivo, Zea mays
Summary of the method: as §1

rape = assay: Test B pre/postemergence rape; type: in vivo, Brassica napus; settings: for Plant response rating, Rape: scale of 0 to 10 where 0 is no effect and 10 is complete control
Summary of the method: as §1

velvetleaf = assay: Test B pre/postemergence velvetleaf; type: in vivo, Abutilon theophrasti; settings: for Plant response rating, Velvetleaf: scale of 0 to 10 where 0 is no effect and 10 is complete control
Summary of the method: as §1

smallflower flatsedge = assay: Test B flood test smallflower flatsedge; type: in vivo, Cyperus difformis
Summary of the method: as §2

wheat = assay: Test B pre/postemergence wheat; type: in vivo, Triticum aestivum; settings: for Plant response rating, Wheat: scale of 0 to 10 where 0 is no effect and 10 is complete control
Summary of the method: as §1

cocklebur = assay: Test B pre/postemergence cocklebur; type: in vivo, Xanthium strumarium
Summary of the method: as §1

duck salad = assay: Test B flood test duck salad; type: in vivo, Heteranthera limosa
Summary of the method: as §2

crabgrass = assay: Test B pre/postemergence crabgrass; type: in vivo, Digitaria sanguinalis
Summary of the method: as §1

pigweed = assay: Test B pre/postemergence pigweed; type: in vivo, Amaranthus retroflexus; settings: for Plant response rating, Redroot pigweed: scale of 0 to 10 where 0 is no effect and 10 is complete control
Summary of the method: as §1

[1] = Postemergence, Rate 500 g/ha, scale of 0 to 10 where 0 is no effect and 10 is complete control
[2] = Preemergence, Rate 62 g/ha, scale of 0 to 10 where 0 is no effect and 10 is complete control
[3] = Preemergence, Rate 125 g/ha, scale of 0 to 10 where 0 is no effect and 10 is complete control
[4] = Preemergence, Rate 250 g/ha, scale 0 to 10, 0 is no effect, 10 is complete control
[5] = Preemergence, Rate 500 g/ha, scale 0 to 10, 0 is no effect, 10 is complete control
[6] = Rate 62 g/ha, Postemergence, scale 0 to 10 (0 no effect, 10 complete control)
[7] = Rate 125 g/ha, Postemergence, scale 0 to 10, 0 is no effect, 10 is complete control
[8] = Postemergence, Rate 250 g/ha, scale 0 to 10
[9] = Rate 62 g/ha, flood test species, Pre-emergence, visual evaluation after twelve to sixteen days
[10] = Rate 125 g/ha, under heading Pre-emergence, flood test species, visual evaluation after twelve to sixteen days
[11] = Rate 250 g/ha, Pre-emergence (flood test species), scale 0 to 10, 0 is no effect, 10 is complete control
[12] = Rate 500 g/ha, Pre-emergence, flood test species, scale 0 to 10 (0 no effect, 10 complete control)

CC(C)N(C(=O)n1oc(=O)n(C(CF)CF)c1=O)c1ccc(Cl)cc1 [Compound 468]
B. signalgrass plant response rating (surinam grass; Postemergence, Rate 250 g/ha, scale 0 to 10, 0 no effect, 10 complete control): 0 | B. signalgrass plant response rating (surinam grass; [1]): 0 | Plant response rating, B. signalgrass (surinam grass; [2]): 0 | Plant response rating, B. signalgrass (surinam grass; [3]): 2 | B. signalgrass plant response rating (surinam grass; [4]): 3 | B. signalgrass plant response rating (surinam grass; [5]): 4 | B. signalgrass plant response rating (surinam grass; [6]): 0 | B. signalgrass plant response rating (surinam grass; [7]): 0 | Soybean plant response rating (soybean; [8]): 1 | Plant response rating, Soybean (soybean; Preemergence, Rate 62 g/ha): 0 | Plant response rating, Soybean (soybean; Preemergence, Rate 125 g/ha): 0 | Soybean plant response rating (soybean; [4]): 0 | Soybean plant response rating (soybean; [5]): 0 | Soybean plant response rating (soybean; [6]): 1 | Soybean plant response rating (soybean; [7]): 1 | Wild oats plant response rating (wild oat; [8]): 0 | Plant response rating, Wild oats (wild oat; Preemergence, Rate 62 g/ha): 0 | Plant response rating, Wild oats (wild oat; Preemergence, Rate 125 g/ha): 0 | Wild oats plant response rating (wild oat; [4]): 3 | Wild oats plant response rating (wild oat; [5]): 7 | Wild oats plant response rating (wild oat; [6]): 0 | Wild oats plant response rating (wild oat; [7]): 0 | Plant response rating, Rice (0 to 10 scale, 0 is no effect, 10 is complete control) (rice; [9]): 0 | Rice plant response rating (0 to 10 scale, 0 is no effect, 10 is complete control) (rice; [10]): 0 | Rice plant response rating (rice; [11]): 0 | Rice plant response rating (rice; [12]): 0 | Giant foxtail plant response rating (giant foxtail; [8]): 9 | Giant foxtail plant response rating (giant foxtail; [1]): 9 | Plant response rating, Giant foxtail (giant foxtail; [2]): 6 | Plant response rating, Giant foxtail (giant foxtail; [3]): 8 | Giant foxtail plant response rating (giant foxtail; [4]): 9 | Giant foxtail plant response rating (giant foxtail; [5]): 10 | Giant foxtail plant response rating (giant foxtail; [6]): 1 | Giant foxtail plant response rating (giant foxtail; [7]): 3 | Sugarbeets plant response rating (sugar beet; [8]): 0 | Plant response rating, Sugarbeets (sugar beet; Preemergence, Rate 62 g/ha): 0 | Plant response rating, Sugarbeets (sugar beet; Preemergence, Rate 125 g/ha): 0 | Sugarbeets plant response rating (sugar beet; [4]): 2 | Sugarbeets plant response rating (sugar beet; [5]): 6 | Sugarbeets plant response rating (sugar beet; [6]): 0 | Sugarbeets plant response rating (sugar beet; [7]): 0 | Blackgrass plant response rating (blackgrass; [8]): 7 | Blackgrass plant response rating (blackgrass; [1]): 8 | Plant response rating, Blackgrass (blackgrass; [2]): 3 | Plant response rating, Blackgrass (blackgrass; [3]): 4 | Blackgrass plant response rating (blackgrass; [4]): 5 | Blackgrass plant response rating (blackgrass; [5]): 9 | Blackgrass plant response rating (blackgrass; [6]): 0 | Blackgrass plant response rating (blackgrass; [7]): 5 | Corn plant response rating (corn; [8]): 0 | Corn plant response rating (corn; [1]): 0 | Plant response rating, Corn (corn; [2]): 0 | Plant response rating, Corn (corn; [3]): 0 | Corn plant response rating (corn; [4]): 0 | Corn plant response rating (corn; [5]): 2 | Corn plant response rating (corn; [6]): 0 | Corn plant response rating (corn; [7]): 0 | Rape plant response rating (rape; [8]): 0 | Plant response rating, Rape (rape; Preemergence, Rate 62 g/ha): 0 | Plant response rating, Rape (rape; Preemergence, Rate 125 g/ha): 0 | Rape plant response rating (rape; [4]): 3 | Rape plant response rating (rape; [5]): 6 | Rape plant response rating (rape; [6]): 0 | Rape plant response rating (rape; [7]): 0 | Velvetleaf plant response rating (velvetleaf; [8]): 2 | Plant response rating, Velvetleaf (velvetleaf; Preemergence, Rate 62 g/ha): 0 | Plant response rating, Velvetleaf (velvetleaf; Preemergence, Rate 125 g/ha): 0 | Velvetleaf plant response rating (velvetleaf; [4]): 1 | Velvetleaf plant response rating (velvetleaf; [5]): 4 | Velvetleaf plant response rating (velvetleaf; [6]): 0 | Velvetleaf plant response rating (velvetleaf; [7]): 0 | Plant response rating, S. Flatsedge (0 to 10 scale, 0 is no effect, 10 is complete control) (smallflower flatsedge; [9]): 0 | S. Flatsedge plant response rating (0 to 10 scale, 0 is no effect, 10 is complete control) (smallflower flatsedge; [10]): 0 | S. Flatsedge plant response rating (smallflower flatsedge; [11]): 0 | S. Flatsedge plant response rating (smallflower flatsedge; [12]): 0 | Wheat plant response rating (wheat; [8]): 0 | Plant response rating, Wheat (wheat; Preemergence, Rate 62 g/ha): 0 | Plant response rating, Wheat (wheat; Preemergence, Rate 125 g/ha): 0 | Wheat plant response rating (wheat; [4]): 0 | Wheat plant response rating (wheat; [5]): 6 | Wheat plant response rating (wheat; [6]): 0 | Wheat plant response rating (wheat; [7]): 0 | Cocklebur plant response rating (cocklebur; [8]): 2 | Cocklebur plant response rating (cocklebur; [1]): 4 | Plant response rating, Cocklebur (cocklebur; [2]): 0 | Plant response rating, Cocklebur (cocklebur; [3]): 0 | Cocklebur plant response rating (cocklebur; [4]): 0 | Cocklebur plant response rating (cocklebur; [5]): 0 | Cocklebur plant response rating (cocklebur; [6]): 0 | Cocklebur plant response rating (cocklebur; [7]): 0 | Plant response rating, Ducksalad (0 to 10 scale, 0 is no effect, 10 is complete control) (duck salad; [9]): 0 | Ducksalad plant response rating (0 to 10 scale, 0 is no effect, 10 is complete control) (duck salad; [10]): 0 | Ducksalad plant response rating (duck salad; [11]): 0 | Ducksalad plant response rating (duck salad; [12]): 0 | Crabgrass plant response rating (crabgrass; [8]): 9 | Crabgrass plant response rating (crabgrass; [1]): 9 | Plant response rating, Crabgrass (crabgrass; [2]): 9 | Plant response rating, Crabgrass (crabgrass; [3]): 9 | Crabgrass plant response rating (crabgrass; [4]): 9 | Crabgrass plant response rating (crabgrass; [5]): 9 | Crabgrass plant response rating (crabgrass; [6]): 3 | Redroot pigweed plant response rating (pigweed; [8]): 4 | Plant response rating, Redroot pigweed (pigweed; Preemergence, Rate 62 g/ha): 0 | Plant response rating, Redroot pigweed (pigweed; Preemergence, Rate 125 g/ha): 4 | Redroot pigweed plant response rating (pigweed; [4]): 8 | Redroot pigweed plant response rating (pigweed; [5]): 10 | Redroot pigweed plant response rating (pigweed; [6]): 0 | Redroot pigweed plant response rating (pigweed; [7]): 2
